Laboratory results from PubChem BioAssay AID493181 (Southern Research Specialized Biocontainment Screening …, 2011).
pIC50: −log10 of the molar value. The source made the active and inactive calls. The rule behind the calls is not given here. Where a SMILES comes first, the peptide text is derived from it. The star is where a group is joined. Cbz = O=C(OCc1ccccc1)*

Columns and labels:
[1] = M. tuberculosis growth inhibition, confirmation, H37Rv, purified and synthesized compounds (AID 493181); conditions: M. tuberculosis H37Rv growth inhibition, no glycerol; at 100 µM (top of the series)
[2] = system: M. tuberculosis H37Rv growth inhibition, no glycerol; assay: as above; conditions: for IC90: 90% growth inhibition concentration

| SMILES | inhibition [1] | pIC50 [2] | IC90 [2] |
| --- | --- | --- | --- |
| Oc1ccccc1/C=N/Nc1ccnc(SCc2ccccc2)n1 | 0.65% (inactive) | – | – |
| Cc1nn2c(NCc3ccccn3)cc(C(C)C)nc2c1-c1ccccc1 | – | 5.83 | 2.67 µM |
| Cc1cccc(/C=C/C(=O)c2ccc([N+](=O)[O-])o2)c1 | – | > 6.70 | < 0.2 µM |
| CCOC(=O)C(C)Sc1ncnc2c1nnn2-c1ccc(F)cc1 (centres undefined) | – | 5.86 | 3.38 µM |
| O=C(/C=C\c1cccs1)N1CCN(Cc2ccc3c(c2)OCO3)CC1 | – | > 6.70 | 2.78 µM |
| Cc1ccc2ccc3ccc(C)nc3c2n1 | – | > 6.70 | 0.92 µM |
| CCOC(=O)COc1ccc(/C=C2\NC(=S)N(CC)C2=O)cc1 | – | 5.71 | 3.45 µM |
| CCOC(=O)CNC(=O)[C@H](Cc1ccccc1)NC(=O)OCc1ccccc1 (Cbz-Phe-Gly-OEt) | – | 5.85 | 2.11 µM |
| Cc1ccc(NC(=O)C2C3/C=C\CCCCC32)cc1C (centres undefined) | – | 5.83 | 1.68 µM |
| O=C(CSc1nc2ccccc2c(=O)[nH]1)NC1CCCCC1 | – | > 6.70 | < 0.2 µM |
| CCC(C)Nc1ccc(NC(C)CC)cc1 (centres undefined) | – | 5.96 | 1.5 µM |
| CNc1nc(SCc2ccccc2Cl)nc2c1CCCC2 | – | > 6.70 | 2.32 µM |
| O=C(NCC(c1cccs1)N1CCOCC1)c1cc([N+](=O)[O-])cc([N+](=O)[O-])c1 (centres undefined) | – | > 6.70 | 0.78 µM |
| CCc1ccc(/C=C2/C(=O)N(C)C(=S)N2CC(=O)OC)s1 | – | 5.53 | 7.16 µM |
| COC(=O)C(C)Oc1ccc(-c2nccc(-c3ccccn3)n2)cc1 (centres undefined) | – | 5.83 | 3.31 µM |
| c1ccc(/N=C2\N=C(Nc3ccccn3)c3ccccc32)nc1 | – | > 6.70 | < 0.2 µM |
| Cc1nc(SCC(=O)NC2CCCCC2)[nH]c(=O)c1C | – | > 6.70 | 0.54 µM |
| Cc1ccc2c(c1)c(C1=c3ccccc3=NC1=O)c(O)n2C | – | 6.08 | 1.47 µM |
| COC(=O)c1cc(=O)n(-c2ccc(F)cc2)c(=Nc2ccc(F)cc2)s1 | – | > 6.70 | 4.51 µM |
| CCOC(=O)c1ccc(NC(=O)Cn2ncc(Cl)c(Cl)c2=O)cc1 | – | > 6.70 | 1.55 µM |
| CC(C)NC(=O)c1sc(=S)n2c1[nH]c(=O)c1ccc(C(=O)NCCc3ccc(Cl)cc3)cc12 | – | > 6.70 | 1.51 µM |
| S=c1nc[nH]c2nc[nH]c12 | – | 5.82 | 1.65 µM |
| COc1cc(NC(=O)C/C(C)=N/NC(=O)c2ccccn2)c(OC)cc1Cl | – | 5.43 | 8.34 µM |
| CCOC(=O)COn1c2c(c3c4no[n+]([O-])c4ccc31)CCCC2 | – | 5.67 | 3.78 µM |
| O=C(CSc1nc2ccccc2c(=O)[nH]1)NCc1ccc(Cl)cc1 | – | 6.41 | 1.82 µM |
| CC(=NCc1ccc2c(c1)OCO2)C1=C(O)c2ccccc2C1=O | – | > 6.70 | 2.6 µM |
| COC(=O)CCc1nc2c(C#N)c(-c3ccc(Cl)cc3)ccn2n1 | – | 6.12 | 7.91 µM |
| O=C(/C=C/c1ccccc1)N1CCN(CCN2C(=O)c3cccc4cccc(c34)C2=O)CC1 | – | 5.50 | > 100 µM |
| O=C1C(Br)=Cc2cccc3cccc1c23 | – | > 6.70 | < 0.2 µM |
| COC(=O)C1CC(=O)N(c2ccc(OCc3ccccc3Cl)cc2)C1 (centres undefined) | – | 6.08 | 8.4 µM |
